Experimental data as given in US20110300147A9, “Inhibiting tumor cell invasion, metastasis and angiogenesis” (The Scripps Research institute, priority 2005, published 2011).

Experiments:
[1] = test system: mouse aorta vessel sprouts; experiment: mouse aortic sprouting assay; format: cell-based
Method: The effects of AEPI-1 on angiogenesis were further evaluated in mouse aortic sprouting assays. First, AEPI-1 was added to the beginning of the experiment to determine its effect on initiation of vessel sprouts (FIG. 5A). […] In the second assay, AEPI-1 was added at the third day after aortic sprouts were already formed (FIG. 5B), to ascertain whether asparaginyl endopeptidase activity was required for continued extension of vessel growth.

wild type 293 cells = experiment: cytotoxicity of AEPI-1 in wild type 293 cells; format: cell-based, human; settings: wild type and legumain-expressing 293 cells
Method: (§1) To further evaluate the role of asparaginyl endopeptidases in angiogenesis, four asparaginyl endopeptidases inhibitors (AEPI) were tested using recombinant legumain in an amidolytic activity assay with fluorescent substrate. FIG. 4A graphically illustrates the effects that AEPI-1 to AEPI-4 (also referred to as legumain inhibitors LI-1 to LI-4) have on asparaginyl endopeptidase activity. […] No apparent cytotoxicity was observed until almost 100 μM AEPI-1 was used in these assays (FIG. 4B).

[2] = cytotoxicity of AEPI-1 in wild type 293 cells; format: cell-based, human; settings: human, wild type 293 cells
Method: as §1

HUVEC = experiment: endothelial cell invasion assay under hypoxia; format: cell-based, human; settings: hypoxic conditions
Method: Cell invasion and mobility assays. Cell migration and invasion assays were performed as described with modifications (Albini et al., 1987). Stock solutions (15 mg/ml) of Matrigel basement membrane matrix (Becton Dickinson, Bedford, Mass.) were stored at −80° C. in 100 μl aliquots. After thawing on ice, the stock was diluted 1:50 with cold serum-free culture media and immediately applied to each membrane insert (8 μm pore) that formed the upper chambers of the multi-well invasion assay plate. The Matrigel was incubated overnight in a sterile laminar tissue culture hood. The membranes were hydrated for 2 hours with 250 μl of serum-free medium and excess medium was removed by aspiration. Medium containing 10% FBS was added to the bottom of each well. A suspension of 10^5 cells in 150 μl of serum-free medium was added to the upper chamber and incubated for 12 hours at 37° C., 5% CO2. At the indicated times, the membrane inserts were removed from the plate and the non-invading cells were removed from the upper surface. Membrane associated cells were stained with 0.09% crystal violet for 30 minutes and washed twice with PBS. The invading cells were counted microscopically. […]
The effect of AEPI-1 on endothelial cell function was assessed in vitro in a matrigel endothelial cell tube formation assay. […]

For `CCOC(=O)C1OC1C(=O)N(CC(N)=O)NC(=O)[C@H](C)NC(=O)[C@H](C)NC(=O)OCc1ccccc1` (stereo partly drawn) [AEPI-1, Cbz-Ala-Ala-AzaAsn-(S,S)-EPCOOEt], the “FGF-2 induced vessel sprouts (initiation)” value ([1]; AEPI-1 added at the beginning of the experiment) was “inhibited FGF-2 induced vessel sprouts in a dose dependent manner”, the “extension of established vascular outgrowth” value ([1]; AEPI-1 added at the third day after aortic sprouts were formed) was “significantly reduced” and the “concentration until which no apparent cytotoxicity was observed” value (wild type 293 cells) was ~100 µM. For the same compound, the CC50 [2] was 320 µM and the “hypoxia induced endothelial cell invasion” value (HUVEC) was “inhibited”.
